Source: ChEMBL document CHEMBL1201862, “PubChem BioAssay data set” (2004)
The source made the active and inactive calls.

How the values were obtained:
P388/ADR = test: cells; format: functional; conditions: Mus musculus
SN12K1 = test: cells; format: functional; conditions: Homo sapiens
P388 = test: cells; format: functional; conditions: Mus musculus
[1] = NIH3T3 cell viability loss – ATP luminescence, mouse fibroblasts, counter-screen, dose response (AID 2010); format: functional, cell-based;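 note: cells exposed to compound for about 90 hours before reading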
[2] = biological target: T1, Lytic switch protein BZLF1 (Epstein-Barr virus (strain B95-8) (HHV-4) (Human herpesvirus 4), UniProt P03206); test: inhibition of BZLF1 ZTA DNA binding – biochemical, fluorescence polarization, Epstein-Barr virus, 1536-well, counter-screen for EBNA-1 inhibitor project, dose response (AID 2377); parameters: species or system human gammaherpesvirus 4;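 note: fluorescence polarization of Cy5-labelled ZRE DNA probe bound by purified Zta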
T1 sequence (P03206 whole entry): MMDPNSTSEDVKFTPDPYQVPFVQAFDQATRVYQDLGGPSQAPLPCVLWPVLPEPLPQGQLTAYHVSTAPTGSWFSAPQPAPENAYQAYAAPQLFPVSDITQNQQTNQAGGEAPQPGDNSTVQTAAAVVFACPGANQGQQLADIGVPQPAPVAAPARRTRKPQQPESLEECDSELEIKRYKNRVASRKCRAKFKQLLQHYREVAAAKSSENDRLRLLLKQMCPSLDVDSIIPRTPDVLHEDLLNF

[3] = Trypanosoma cruzi growth suppression in host cells – NIH3T3 host cells, beta-gal luminescence, confirmation (AID 2044); format: functional, cell-based;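 note: intracellular parasites grown in NIH/3T3 mouse fibroblasts as host cells; luminescent beta-galactosidase reporter signal from transgenic T. cruzi replicating inside host cells; inhibitors lower the luminescence signal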
[4] = biological target: T2, Epstein-Barr nuclear antigen 1 (Epstein-Barr virus (strain B95-8) (HHV-4) (Human herpesvirus 4), UniProt P03211); test: inhibition of EBV nuclear antigen 1 DNA binding – biochemical, fluorescence polarization, 1536-well, dose response (AID 2381); parameters: species or system human gammaherpesvirus 4;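 note: fluorescence polarization of a Cy5 DNA probe bound by EBNA-1 protein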
T2 sequence (P03211 whole entry): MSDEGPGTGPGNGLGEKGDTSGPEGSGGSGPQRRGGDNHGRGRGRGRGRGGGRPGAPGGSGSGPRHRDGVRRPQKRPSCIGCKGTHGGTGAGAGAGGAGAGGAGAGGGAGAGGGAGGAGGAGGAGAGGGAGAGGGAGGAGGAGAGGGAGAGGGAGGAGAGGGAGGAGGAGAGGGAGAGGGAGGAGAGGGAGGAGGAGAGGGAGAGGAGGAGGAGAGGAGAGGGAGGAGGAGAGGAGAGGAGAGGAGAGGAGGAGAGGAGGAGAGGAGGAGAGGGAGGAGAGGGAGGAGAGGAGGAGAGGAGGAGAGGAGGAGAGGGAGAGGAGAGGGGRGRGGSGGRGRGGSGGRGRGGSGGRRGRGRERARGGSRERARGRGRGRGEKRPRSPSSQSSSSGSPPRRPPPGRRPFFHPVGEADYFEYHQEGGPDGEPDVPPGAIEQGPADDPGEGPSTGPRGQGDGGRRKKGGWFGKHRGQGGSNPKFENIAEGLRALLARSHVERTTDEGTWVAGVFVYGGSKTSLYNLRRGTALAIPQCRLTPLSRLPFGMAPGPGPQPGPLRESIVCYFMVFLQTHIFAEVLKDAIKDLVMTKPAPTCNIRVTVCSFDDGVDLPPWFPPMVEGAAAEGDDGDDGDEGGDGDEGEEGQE

[5] = biological target: T3, Mannose-6-phosphate isomerase (Homo sapiens, UniProt P34949); test: MPI inhibition at elevated mannose 6-phosphate – biochemical, fluorescence intensity, high mannose 6-phosphate, primary screen (AID 1220)
T3 sequence (P34949 whole entry): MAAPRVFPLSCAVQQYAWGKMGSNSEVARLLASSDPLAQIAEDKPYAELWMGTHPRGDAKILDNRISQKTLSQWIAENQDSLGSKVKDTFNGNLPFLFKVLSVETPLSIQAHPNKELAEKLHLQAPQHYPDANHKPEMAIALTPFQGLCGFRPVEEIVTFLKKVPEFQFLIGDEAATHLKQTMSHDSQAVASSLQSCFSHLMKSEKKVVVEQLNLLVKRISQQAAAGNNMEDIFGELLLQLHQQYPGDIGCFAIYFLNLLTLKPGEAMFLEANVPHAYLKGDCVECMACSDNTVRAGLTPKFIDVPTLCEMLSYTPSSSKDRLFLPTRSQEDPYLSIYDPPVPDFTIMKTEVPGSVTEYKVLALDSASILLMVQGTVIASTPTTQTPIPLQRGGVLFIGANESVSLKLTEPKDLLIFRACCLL

[6] = biological target: DNA dC->dU-editing enzyme APOBEC-3G (Homo sapiens, UniProt Q9HC16); format: functional;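 note: Dose-response counterscreen measuring inhibition of APOBEC3G DNA deaminase activity, run while confirming APOBEC3A inhibitors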
Cytochrome P450 2D6 = Cytochrome P450 2D6 (Homo sapiens, UniProt P10635);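 note: CYP2D6 member of a cytochrome P450 panel assay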
[7] = biological target: DNA dC->dU-editing enzyme APOBEC-3A (Homo sapiens, UniProt P31941); test: Dose Response confirmation of small molecule APOBEC3A DNA Deaminase Inhibitors via a fluorescence-based single-stranded DNA deaminase assay. [Related pubchem assays (depositor defined):AID493011, AID493024]; format: functional
[8] = microbe, parasite or virus in culture; format: functional; conditions: Mycobacterium tuberculosis
CAAX prenyl protease 2 = biological target: T4, CAAX prenyl protease 2 (Saccharomyces cerevisiae S288c, UniProt Q03530); format: biochemical
T4 sequence (Q03530 whole entry): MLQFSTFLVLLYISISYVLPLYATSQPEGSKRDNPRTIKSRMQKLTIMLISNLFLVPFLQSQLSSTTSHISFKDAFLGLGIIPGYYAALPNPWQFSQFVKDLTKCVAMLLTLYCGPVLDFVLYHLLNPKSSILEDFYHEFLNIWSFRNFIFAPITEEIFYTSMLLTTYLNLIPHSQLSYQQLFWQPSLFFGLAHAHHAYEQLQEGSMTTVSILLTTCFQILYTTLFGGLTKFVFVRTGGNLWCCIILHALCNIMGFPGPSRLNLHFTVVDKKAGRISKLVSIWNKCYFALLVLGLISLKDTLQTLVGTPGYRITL

[9] = intracellular Trypanosoma cruzi inhibitors in host cells – cell-based, plate reader, cherry-pick samples, set 3, dose response (AID 651818); format: functional;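 note: compounds incubated with infected cells for about four days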
Prothrombin = Prothrombin (Homo sapiens, UniProt P00734); test: Thrombin 1536 HTS Dose Response Confirmation. [Related pubchem assays: 1046 (Thrombin 1536 HTS; hits were confirmed in this assay)]; format: functional
BJ [10] = test: cells; format: functional, cell-based; conditions: Homo sapiens
BJ [11] = test: BJ-TERT-LT-ST fibroblast viability loss – cell-based, RAS-independent, luminescence, dose response (AID 1935); format: functional; conditions: Homo sapiens;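 note: BJ fibroblasts immortalized with TERT plus LT and ST oncogenes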
[12] = DRD fibroblast viability loss – cell-based, non-viral oncogenic, luminescence, dose response (AID 1934); format: functional; conditions: Homo sapiens
BJ [13] = test: BJ-TERT fibroblast viability loss – cell-based, RAS-independent, luminescence, dose response (AID 1933); format: functional; conditions: Homo sapiens
BJ [14] = test: growth inhibition of engineered Ras-driven BJ cells – cell-based, alamar blue fluorescence, cherrypicked samples, dose response (AID 2631); format: functional; conditions: Homo sapiens;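 note: confirmatory dose-response assay in RAS-dependent BJ fibroblasts engineered with TERT, LT and ST, with cytotoxicity read by fluorescence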
INS1 = test: INS-1E survival protection against cytokine death – cell-based, luminescence, retest, dose response (AID 449756); format: functional; conditions: Rattus norvegicus;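 note: cell death triggered by IL-1 beta plus TNF-alpha plus IFN-gamma mixture; protective hits raise ATP signal compared with cytokine alone wells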

DNA dC->dU-editing enzyme APOBEC-3A, sequence (P31941 whole entry): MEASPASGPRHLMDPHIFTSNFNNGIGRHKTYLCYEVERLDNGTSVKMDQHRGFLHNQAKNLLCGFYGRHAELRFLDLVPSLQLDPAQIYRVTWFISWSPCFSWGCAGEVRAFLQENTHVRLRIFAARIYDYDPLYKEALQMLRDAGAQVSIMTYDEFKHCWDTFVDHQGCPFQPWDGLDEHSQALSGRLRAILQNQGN
DNA dC->dU-editing enzyme APOBEC-3G, sequence (Q9HC16 whole entry): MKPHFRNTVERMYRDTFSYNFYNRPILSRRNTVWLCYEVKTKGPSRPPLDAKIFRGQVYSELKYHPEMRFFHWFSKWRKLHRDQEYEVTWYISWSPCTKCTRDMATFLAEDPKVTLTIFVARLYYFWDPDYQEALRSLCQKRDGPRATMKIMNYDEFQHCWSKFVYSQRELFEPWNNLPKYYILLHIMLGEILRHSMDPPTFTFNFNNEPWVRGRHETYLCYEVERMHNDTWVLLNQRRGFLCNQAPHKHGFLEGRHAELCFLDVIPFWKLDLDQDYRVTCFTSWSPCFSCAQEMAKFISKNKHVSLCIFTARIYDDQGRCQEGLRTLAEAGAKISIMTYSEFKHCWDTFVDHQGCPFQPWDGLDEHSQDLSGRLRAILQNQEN
Cytochrome P450 2D6, sequence (P10635 whole entry): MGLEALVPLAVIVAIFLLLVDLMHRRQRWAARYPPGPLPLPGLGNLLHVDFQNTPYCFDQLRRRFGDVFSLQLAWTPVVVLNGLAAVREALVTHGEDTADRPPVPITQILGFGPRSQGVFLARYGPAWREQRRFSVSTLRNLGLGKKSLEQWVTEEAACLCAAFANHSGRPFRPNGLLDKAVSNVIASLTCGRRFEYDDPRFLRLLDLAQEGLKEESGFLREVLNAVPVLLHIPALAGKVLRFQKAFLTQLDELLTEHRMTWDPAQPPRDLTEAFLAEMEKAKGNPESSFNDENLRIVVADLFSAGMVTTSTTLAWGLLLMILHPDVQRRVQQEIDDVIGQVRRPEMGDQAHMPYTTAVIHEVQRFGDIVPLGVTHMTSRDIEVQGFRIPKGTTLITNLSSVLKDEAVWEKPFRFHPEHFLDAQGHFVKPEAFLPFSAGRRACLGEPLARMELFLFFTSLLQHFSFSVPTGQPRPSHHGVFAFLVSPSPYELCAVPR

SMILES: C=C(C)C(=O)O[C@H]1CC2=C[C@@H](C[C@@]3(C)O[C@@H]3[C@H]3OC(=O)C(=C)[C@@H]31)OC2=O [ELEPHANTOPIN]
- GI50 (P388/ADR): 0.166 µM (active)
- GI50 (SN12K1): 4.73 µM (inactive)
- GI50 (P388): 0.124 µM (active)

SMILES: Cc1ccc(-c2nc3ccccc3[nH]2)cc1NC(=O)c1sc2cc(Cl)ccc2c1Cl
- EC50 [1]: > 60 µM (inconclusive)
- IC50 [2]: > 111 µM (not active)
- EC50 [3]: 0.642 µM (active)
- IC50 [4]: 13 µM (not active)

SMILES: CCN(Cc1ccncc1)Cc1c(O)ccc2cc(Br)ccc12
- IC50 [5]: > 50 µM (not active)

SMILES: CCCC(=O)Nc1ccc2nc(SCC(=O)Nc3ccc(N4CCOCC4)c(Cl)c3)sc2c1
- IC50 [6]: 4.72 µM (active)
- AC50 (Cytochrome P450 2D6): 10 µM (inconclusive)
- IC50 [2]: > 111 µM (not active)
- IC50 [7]: 4.33 µM (active)
- IC50 [4]: > 148 µM (not active)

SMILES: CC(C)=CCC/C(C)=C/CCC1(C)C=Cc2c(c3ccccc3oc2=O)O1 (stereo unspecified)
- GI50 (P388/ADR): 20.2 µM (inactive)
- GI50 (SN12K1): 16.9 µM (inactive)
- GI50 (P388): 15.2 µM (inactive)

SMILES: COc1ccc(CN2CCN(C(c3ccc(F)cc3)c3ccc(F)cc3)CC2)c(OC)c1OC
- CC50 [8]: > 40 µM (active)
- AC50 (CAAX prenyl protease 2): 4.67 µM (active)

SMILES: C[C@@H]1CN([C@@H](C)CO)C(=O)c2cc(NC(=O)Nc3ccc(C(F)(F)F)cc3)ccc2O[C@@H]1CN(C)S(=O)(=O)c1ccc(F)cc1
- AC50 [9]: 4.21 µM (active)

SMILES: C/C(=N\NS(=O)(=O)c1ccccc1)c1ccccc1
- GI50 (P388/ADR): > 100 µM (inactive)
- GI50 (SN12K1): > 100 µM (inactive)
- GI50 (P388): > 100 µM (inactive)

SMILES: CN1CCN(P2(=S)Oc3ccc4ccccc4c3-c3c(ccc4ccccc34)O2)CC1
- GI50 (P388/ADR): 26.2 µM (inactive)
- GI50 (SN12K1): 21.8 µM (inactive)
- GI50 (P388): 24.1 µM (inactive)

SMILES: Cc1ccc(OCC(=O)N2CCC(N3CCCCCC3)CC2)cc1
- IC50 (Prothrombin): > 50 µM (not active)

SMILES: C[C@@H]1CN([C@H](C)CO)C(=O)Cc2cc(NC(=O)c3ccncc3)ccc2O[C@H]1CN(C)Cc1ccc(-c2ccccc2)cc1
- AC50 [9]: 3.08 µM (active)

SMILES: COc1ccccc1Nc1ncc(C(=O)Nc2ccc(OC)c(OC)c2)c2ccccc12
- IC50 [2]: > 111 µM (not active)
- IC50 [4]: 16.5 µM (not active)

SMILES: COc1cc(CN2CCN(c3ccccc3F)CC2)c([N+](=O)[O-])cc1OC
- IC50 [5]: > 50 µM (not active)

SMILES: Cc1ccc(NS(=O)(=O)c2ccc(NC(=O)CN(c3cc([N+](=O)[O-])ccc3C)S(C)(=O)=O)cc2)c(C)c1
- CC50 [8]: 4.92 µM (active)
- EC50 (BJ [10]): > 75 µM (not active)
- EC50 (BJ [11]): > 150 µM (inconclusive)
- EC50 [12]: > 75 µM (not active)
- EC50 (BJ [13]): 39.7 µM (active)
- EC50 (BJ [14]): > 133 µM (inactive)
- AC50 (INS1): 1.49 µM (active)

SMILES: CCn1c(SCC(N)=O)nnc1C(C)C
- IC50 (Prothrombin): > 50 µM (not active)

SMILES: Cc1ccc(N2CC(C(=O)N/N=C/c3cccc([N+](=O)[O-])c3)CC2=O)cc1 (stereo unspecified)
- IC50 (Prothrombin): > 50 µM (not active)

SMILES: O=C(Nc1ccc(N2CCOCC2)cc1)C1CCN(S(=O)(=O)c2ccccc2F)CC1
- IC50 (Prothrombin): > 50 µM (not active)

SMILES: Cc1ccc(NC(=O)CN(C)C(=O)COc2cccc3cccnc23)cc1
- IC50 [5]: 44.5 µM (active)

SMILES: C[C@@H]1CN([C@H](C)CO)C(=O)Cc2cc(NS(=O)(=O)c3ccccc3)ccc2O[C@@H]1CN(C)Cc1ccc(Oc2ccccc2)cc1
- AC50 [9]: 4.87 µM (active)

SMILES: COC1=C2CC(C)CC(OC)C(O)C(C)/C=C(\C)C(OC(N)=O)C(OC)/C=C\C=C(/C)C(=O)NC(=C(/C=N/C(C)(C)C)C1=O)C2=O (stereo unspecified)
- GI50 (P388/ADR): 3.72 µM (inactive)
- GI50 (SN12K1): 3.64 µM (inactive)
- GI50 (P388): 2.33 µM (inactive)

SMILES: Cc1ccc(S(=O)(=O)Nc2ccc3c(c2)CC(=O)N([C@H](C)CO)C[C@@H](C)[C@H](CN(C)Cc2ccc(C(=O)Nc4ccccc4N)cc2)O3)cc1
- AC50 [9]: 2.94 µM (active)

SMILES: CNC(=S)NNC(=O)c1sccc1OCc1cccc(C(F)(F)F)c1
- IC50 [2]: > 111 µM (not active)
- IC50 [4]: 9.69 µM (active)

SMILES: CCOC(=O)c1oc2ccccc2c1NC(=O)c1ccc(S(=O)(=O)N(C)C)cc1
- IC50 [2]: > 111 µM (not active)
- IC50 [4]: 16.6 µM (not active)

SMILES: O=C(CSc1nnc(-c2ccccc2)c(-c2ccccc2)n1)Nc1ccc(Br)cn1
- IC50 (Prothrombin): > 50 µM (inconclusive)

SMILES: O=C(Cc1ccc(Cl)cc1)c1c[nH]c(C(=O)NCc2cccnc2)c1
- EC50 (BJ [10]): 6.96 µM (active)
- EC50 (BJ [11]): > 150 µM (inconclusive)
- EC50 [12]: > 150 µM (not active)
- EC50 (BJ [13]): 11.3 µM (inconclusive)
- EC50 (BJ [14]): 4.8 µM (active)
- AC50 (INS1): 0.907 µM (active)

SMILES: C[C@@H]1CN([C@H](C)CO)C(=O)c2cccc(NC(=O)c3nc4ccccc4s3)c2O[C@H]1CN(C)Cc1ccc(C(=O)Nc2ccccc2N)cc1
- AC50 [9]: 1.49 µM (active)

SMILES: CCOC(=O)/C=C/c1c(C)[nH]c(=O)[nH]c1=O
- GI50 (P388/ADR): 169 µM (inactive)
- GI50 (SN12K1): > 250 µM (inactive)
- GI50 (P388): 158 µM (inactive)
